Source: patent US20220347171A1, “TREATMENT OF PRURIGO NODULARIS” (TREVI THERAPEUTICS, INC., priority 2016, published 2022)
Structures can show the parent of a compound that is named as a salt.

System: prurigo nodularis patients
Assay: TR03ext (Example 3): Prurigo Activity Score (PAS) healed lesions; Stage 0 100% healed, Stage 1 75%-99%, Stage 2 50%-74%, Stage 3 25%-49%, Stage 4 0-24% healed
Assay type: in vivo, human
From the text: In some embodiments, after the treatment the patient experiences a substantial reduction of itch that is characterized by at least one category/stage improvement in Prurigo Activity Score (PAS). In particular embodiments, after the treatment the patient experiences a reduction of itch that results in at least one category/stage improvement in Prurigo Activity Score (PAS) domains of number of prurigo lesions, prurigo lesions with excoriations/crusts and/or healed prurigo lesions. The PAS consists of 7 qualitative and quantitative measurements related to the examination of the skin. Type, number, distribution, affected body parts, and quantitative number of lesions in a representative body part are documented. The biggest lesion and the most representative lesion are monitored with documentation of height and area measurements. Prurigo lesion activity is recorded as a percentages based on their stage (0-4). In some embodiments, number measurements of lesions on the body have four numerical categories: 0, 1-19, 20-100 and >100. In some embodiments, prurigo lesions with excoriations/crusts have five categories: Stage 4 (76%-100%), Stage 3 (51%-75%), Stage 2 (26%-50%), Stage 1 (1-25%) and Stage 0 (0%). In some embodiments, healed prurigo lesions have five categories: Stage 4 (0-24%), Stage 3 (25-49%), Stage 2 (50-74%), Stage 1 (75%-99%), Stage 0 (100%).
This clinical study was a Phase 2 Open Label Extension Study (clinical study TR03ext) of the randomized, double-blind, 3-parallel arm, placebo controlled dose ranging study described in Example 2. All those subjects who were randomized, and then completed Example 2 study, were eligible to participate in the Extension Study.
The primary endpoint was a description of the overall incidence and nature of Treatment-Emergent AEs (TEAES) during weeks 5-50 of the study. Exploratory efficacy endpoints included Change from Baseline patient reported outcome measures of Worst itch NRS, itchy VRS and ItchyQoL, by Treatment Period study visit and Baseline NRS score. There was also an assessment of any potential skin lesion changes over time using the metrics of the PAS.
Patients in Extension Study were titrated over a dose range of 30 mg QD to 180 mg BID based on tolerability. The selected dose range was based on Example 2 study whereby patients were titrated from a 30 mg QD dose either to 30 mg BID, 60 mg BID, 90 mg BID, 120 mg BID or a 180 mg BID dose. The highest dose proposed was 180 mg BID (360 mg daily dose), and was well below the highest recommended daily treatment of 160 mg IV (equivalent to 960 mg oral) for the current marketed parenteral administered product.
Tables 12, 13 and 14 display healed lesion PAS data for subjects who received treatment for at least 6 months, subjects who received treatment for at least 9 months and subjects who completed 50 weeks of treatment in the study, respectively. The status of the healed lesion activity is reported as percentages based on their stage (0-4) using a grading system: Stage 0 (100% healed); Stage 1 (75%-99% healed); Stage 2 (50%-74% healed); Stage 3 (25%-49% healed); Stage 4: 0-24% healed. Thus the higher the stage, the […] the prurigo skin pathology.

[1] = treatment for at least 6 months
[2] = treatment for at least 9 months

Oc1ccc2c3c1OC1[C@@H](O)CC[C@@]4(O)[C@@H](C2)N(CC2CCC2)CC[C@]314 (stereo partly drawn) [Nalbuphine, 17-(cyclobutylmethyl)-4,5α-epoxymorphinian-3, 6α, 14-triol, hydrochloride]
Subjects with at least one category improvement in the percentage of healed lesions (PAS) (after 6 months, 10/16): 62.5%
Subjects with at least one category improvement in the percentage of healed lesions (PAS) (after 9 months, 7/13): 53.8%
Subjects with at least one category improvement in the percentage of healed lesions (PAS) (after 12 months, 6/12): 50%
Healed lesion PAS Category Shift: Baseline Stage 0 to Last Observed Stage 0 (treatment for 50 weeks): 1 (7.7) Number (%) of Subjects
Healed lesion PAS Category Shift: Baseline Stage 0 to Last Observed Stage 1 (treatment for 50 weeks): 0 Number (%) of Subjects
Healed lesion PAS Category Shift: Baseline Stage 0 to Last Observed Stage 2 (treatment for 50 weeks): 0 Number (%) of Subjects
Healed lesion PAS Category Shift: Baseline Stage 0 to Last Observed Stage 3 (treatment for 50 weeks): 0 Number (%) of Subjects
Healed lesion PAS Category Shift: Baseline Stage 0 to Last Observed Stage 4 (treatment for 50 weeks): 0 Number (%) of Subjects
Healed lesion PAS Category Shift: Baseline Stage 1 to Last Observed Stage 0 (treatment for 50 weeks): 0 Number (%) of Subjects
Healed lesion PAS Category Shift: Baseline Stage 1 to Last Observed Stage 1 (treatment for 50 weeks): 2 (15.4) Number (%) of Subjects
Healed lesion PAS Category Shift: Baseline Stage 1 to Last Observed Stage 2 (treatment for 50 weeks): 1 (7.7) Number (%) of Subjects
Healed lesion PAS Category Shift: Baseline Stage 1 to Last Observed Stage 3 (treatment for 50 weeks): 0 Number (%) of Subjects
Healed lesion PAS Category Shift: Baseline Stage 1 to Last Observed Stage 4 (treatment for 50 weeks): 0 Number (%) of Subjects
Healed lesion PAS Category Shift: Baseline Stage 2 to Last Observed Stage 0 (treatment for 50 weeks): 0 Number (%) of Subjects
Healed lesion PAS Category Shift: Baseline Stage 2 to Last Observed Stage 1 (treatment for 50 weeks): 3 (23.1) Number (%) of Subjects
Healed lesion PAS Category Shift: Baseline Stage 2 to Last Observed Stage 2 (treatment for 50 weeks): 0 Number (%) of Subjects
Healed lesion PAS Category Shift: Baseline Stage 2 to Last Observed Stage 3 (treatment for 50 weeks): 0 Number (%) of Subjects
Healed lesion PAS Category Shift: Baseline Stage 2 to Last Observed Stage 4 (treatment for 50 weeks): 0 Number (%) of Subjects
Healed lesion PAS Category Shift: Baseline Stage 3 to Last Observed Stage 0 (treatment for 50 weeks): 0 Number (%) of Subjects
Healed lesion PAS Category Shift: Baseline Stage 3 to Last Observed Stage 1 (treatment for 50 weeks): 0 Number (%) of Subjects
Healed lesion PAS Category Shift: Baseline Stage 3 to Last Observed Stage 2 (treatment for 50 weeks): 0 Number (%) of Subjects
Healed lesion PAS Category Shift: Baseline Stage 3 to Last Observed Stage 3 (treatment for 50 weeks): 2 (15.4) Number (%) of Subjects
Healed lesion PAS Category Shift: Baseline Stage 3 to Last Observed Stage 4 (treatment for 50 weeks): 0 Number (%) of Subjects
Healed lesion PAS Category Shift: Baseline Stage 4 to Last Observed Stage 0 (treatment for 50 weeks): 1 (7.7) Number (%) of Subjects
Healed lesion PAS Category Shift: Baseline Stage 4 to Last Observed Stage 1 (treatment for 50 weeks): 0 (7.7) Number (%) of Subjects
Healed lesion PAS Category Shift: Baseline Stage 4 to Last Observed Stage 2 (treatment for 50 weeks): 1 (7.7) Number (%) of Subjects
Healed lesion PAS Category Shift: Baseline Stage 4 to Last Observed Stage 3 (treatment for 50 weeks): 1 (7.7) Number (%) of Subjects
Healed lesion PAS: Last Observed PAS Result Stage 0 (treatment for 50 weeks): 2 (15.4) Number (%) of Subjects
Healed lesion PAS: Last Observed PAS Result Stage 1 (treatment for 50 weeks): 6 (46.1) Number (%) of Subjects
Healed lesion PAS: Last Observed PAS Result Stage 2 (treatment for 50 weeks): 2 (15.4) Number (%) of Subjects
Healed lesion PAS: Last Observed PAS Result Stage 3 (treatment for 50 weeks): 3 (23.1) Number (%) of Subjects
Healed lesion PAS: Last Observed PAS Result Stage 4 (treatment for 50 weeks): 1 (7.7) Number (%) of Subjects
Healed lesion PAS Category Shift: Baseline Stage 0 to Last Observed Stage 0 [1]: 1 (5.9) Number (%) of Subjects
Healed lesion PAS Category Shift: Baseline Stage 0 to Last Observed Stage 1 [1]: 0 Number (%) of Subjects
Healed lesion PAS Category Shift: Baseline Stage 0 to Last Observed Stage 2 [1]: 0 Number (%) of Subjects
Healed lesion PAS Category Shift: Baseline Stage 0 to Last Observed Stage 3 [1]: 0 Number (%) of Subjects
Healed lesion PAS Category Shift: Baseline Stage 0 to Last Observed Stage 4 [1]: 0 Number (%) of Subjects
Healed lesion PAS Category Shift: Baseline Stage 1 to Last Observed Stage 0 [1]: 0 Number (%) of Subjects
Healed lesion PAS Category Shift: Baseline Stage 1 to Last Observed Stage 1 [1]: 2 (11.8) Number (%) of Subjects
Healed lesion PAS Category Shift: Baseline Stage 1 to Last Observed Stage 2 [1]: 1 (5.9) Number (%) of Subjects
Healed lesion PAS Category Shift: Baseline Stage 1 to Last Observed Stage 3 [1]: 0 Number (%) of Subjects
Healed lesion PAS Category Shift: Baseline Stage 1 to Last Observed Stage 4 [1]: 0 Number (%) of Subjects
Healed lesion PAS Category Shift: Baseline Stage 2 to Last Observed Stage 0 [1]: 1 (5.9) Number (%) of Subjects
Healed lesion PAS Category Shift: Baseline Stage 2 to Last Observed Stage 1 [1]: 3 (17.6) Number (%) of Subjects
Healed lesion PAS Category Shift: Baseline Stage 2 to Last Observed Stage 2 [1]: 0 Number (%) of Subjects
Healed lesion PAS Category Shift: Baseline Stage 2 to Last Observed Stage 3 [1]: 0 Number (%) of Subjects
Healed lesion PAS Category Shift: Baseline Stage 2 to Last Observed Stage 4 [1]: 0 Number (%) of Subjects
Healed lesion PAS Category Shift: Baseline Stage 3 to Last Observed Stage 0 [1]: 0 Number (%) of Subjects
Healed lesion PAS Category Shift: Baseline Stage 3 to Last Observed Stage 1 [1]: 1 (5.9) Number (%) of Subjects
Healed lesion PAS Category Shift: Baseline Stage 3 to Last Observed Stage 2 [1]: 0 Number (%) of Subjects
Healed lesion PAS Category Shift: Baseline Stage 3 to Last Observed Stage 3 [1]: 2 (11.8) Number (%) of Subjects
Healed lesion PAS Category Shift: Baseline Stage 3 to Last Observed Stage 4 [1]: 0 Number (%) of Subjects
Healed lesion PAS Category Shift: Baseline Stage 4 to Last Observed Stage 0 [1]: 1 (5.9) Number (%) of Subjects
Healed lesion PAS Category Shift: Baseline Stage 4 to Last Observed Stage 1 [1]: 2 (11.8) Number (%) of Subjects
Healed lesion PAS Category Shift: Baseline Stage 4 to Last Observed Stage 2 [1]: 1 (5.9) Number (%) of Subjects
Healed lesion PAS Category Shift: Baseline Stage 4 to Last Observed Stage 3 [1]: 1 (5.9) Number (%) of Subjects
Healed lesion PAS Category Shift: Baseline Stage 4 to Last Observed Stage 4 [1]: 1 (5.9) Number (%) of Subjects
Healed lesion PAS: Last Observed PAS Result Stage 0 [1]: 3 (17.6) Number (%) of Subjects
Healed lesion PAS: Last Observed PAS Result Stage 1 [1]: 9 (52.9) Number (%) of Subjects
Healed lesion PAS: Last Observed PAS Result Stage 2 [1]: 2 (11.8) Number (%) of Subjects
Healed lesion PAS: Last Observed PAS Result Stage 3 [1]: 3 (17.6) Number (%) of Subjects
Healed lesion PAS: Last Observed PAS Result Stage 4 [1]: 1 (5.9) Number (%) of Subjects
Healed lesion PAS Category Shift: Baseline Stage 0 to Last Observed Stage 0 [2]: 1 (7.1%) Number (%) of Subjects
Healed lesion PAS Category Shift: Baseline Stage 0 to Last Observed Stage 1 [2]: 0 Number (%) of Subjects
Healed lesion PAS Category Shift: Baseline Stage 0 to Last Observed Stage 2 [2]: 0 Number (%) of Subjects
Healed lesion PAS Category Shift: Baseline Stage 0 to Last Observed Stage 3 [2]: 0 Number (%) of Subjects
Healed lesion PAS Category Shift: Baseline Stage 0 to Last Observed Stage 4 [2]: 0 Number (%) of Subjects
Healed lesion PAS Category Shift: Baseline Stage 1 to Last Observed Stage 0 [2]: 0 Number (%) of Subjects
Healed lesion PAS Category Shift: Baseline Stage 1 to Last Observed Stage 1 [2]: 2 (14.3) Number (%) of Subjects
Healed lesion PAS Category Shift: Baseline Stage 1 to Last Observed Stage 2 [2]: 1 (7.1) Number (%) of Subjects
Healed lesion PAS Category Shift: Baseline Stage 1 to Last Observed Stage 3 [2]: 0 Number (%) of Subjects
Healed lesion PAS Category Shift: Baseline Stage 1 to Last Observed Stage 4 [2]: 0 Number (%) of Subjects
Healed lesion PAS Category Shift: Baseline Stage 2 to Last Observed Stage 0 [2]: 0 Number (%) of Subjects
Healed lesion PAS Category Shift: Baseline Stage 2 to Last Observed Stage 1 [2]: 3 (21.4) Number (%) of Subjects
Healed lesion PAS Category Shift: Baseline Stage 2 to Last Observed Stage 2 [2]: 0 Number (%) of Subjects
Healed lesion PAS Category Shift: Baseline Stage 2 to Last Observed Stage 3 [2]: 0 Number (%) of Subjects
Healed lesion PAS Category Shift: Baseline Stage 2 to Last Observed Stage 4 [2]: 0 Number (%) of Subjects
Healed lesion PAS Category Shift: Baseline Stage 3 to Last Observed Stage 0 [2]: 0 Number (%) of Subjects
Healed lesion PAS Category Shift: Baseline Stage 3 to Last Observed Stage 1 [2]: 0 Number (%) of Subjects
Healed lesion PAS Category Shift: Baseline Stage 3 to Last Observed Stage 2 [2]: 0 Number (%) of Subjects
Healed lesion PAS Category Shift: Baseline Stage 3 to Last Observed Stage 3 [2]: 2 (14.3) Number (%) of Subjects
Healed lesion PAS Category Shift: Baseline Stage 3 to Last Observed Stage 4 [2]: 0 Number (%) of Subjects
Healed lesion PAS Category Shift: Baseline Stage 4 to Last Observed Stage 0 [2]: 1 (7.1) Number (%) of Subjects
Healed lesion PAS Category Shift: Baseline Stage 4 to Last Observed Stage 1 [2]: 1 (7.1) Number (%) of Subjects
Healed lesion PAS Category Shift: Baseline Stage 4 to Last Observed Stage 2 [2]: 1 (7.1) Number (%) of Subjects
Healed lesion PAS Category Shift: Baseline Stage 4 to Last Observed Stage 3 [2]: 1 (7.1) Number (%) of Subjects
Healed lesion PAS Category Shift: Baseline Stage 4 to Last Observed Stage 4 [2]: 1 (7.1) Number (%) of Subjects
Healed lesion PAS: Last Observed PAS Result Stage 0 [2]: 2 (14.3) Number (%) of Subjects
Healed lesion PAS: Last Observed PAS Result Stage 1 [2]: 6 (42.9) Number (%) of Subjects
Healed lesion PAS: Last Observed PAS Result Stage 2 [2]: 2 (14.3) Number (%) of Subjects
Healed lesion PAS: Last Observed PAS Result Stage 3 [2]: 3 (21.4) Number (%) of Subjects
Healed lesion PAS: Last Observed PAS Result Stage 4 [2]: 1 (7.1) Number (%) of Subjects
